These results are taken from patent publication US6479548B2, “Substituted stilbenes as glucose uptake enhancers” (Telik, Inc., priority 2000, dated 2002).

In one assay the test system is 3T3 L1 fibroblasts. Briefly: Glucose transport activity (14C-2-deoxy-D-glucose uptake). It is filed as cell-based. As to conditions: concentration producing increase in glucose transport that is 50% of the response of 100 nM insulin (5.6 nM insulin as lower bound), tested 1 μM to 56 μM. Here is the method:
3T3 L1 fibroblasts (ATCC) were grown in Dulbecco's modified Eagle's medium (DMEM) with 10% fetal bovine serum (FBS). The cells were plated at a density of 3×10^4 cells/well in 24-well plates. Two days after confluence was reached, the cells were treated for 3 days with 0.5 mM isobutylmethylxanthine (IBMX), 1 μM dexamethasone, and 1.7 μM insulin. The cells were then transferred to DMEM with 1.7 μM insulin for 2 more days. The cells were maintained in DMEM with 10% FBS for an additional 4 days. Finally, the cells were serum-starved overnight in 0. 1% bovine serum albumin (BSA) in DMEM. The following day, the medium was replaced with 150 mM NaCl, 1.7 mM KCl, 0.9 mM CaCl2, K2HPO4 (pH 7.4), to which was added either the experimental compound or its vehicle (DMSO). Insulin or its vehicle (0.01% BSA) was diluted in the assay buffer (containing test compound or vehicle, respectively) to a final concentration of 5.6 nM. After incubation for 30 min at 37° C., 5 μCi/ml ^14C-2-deoxy-D-glucose was added, and the incubation was continued for an additional 30 min at 37° C. The cells were then washed 3 times with ice-cold PBS/20 mM glucose and lysed in 250 μl of lysis buffer (50 mM HEPES pH 7.6, 1% Triton X-100) for 30 min at room temperature. Radioactivity in the lysate was quantified by scintillation counting.
Once ^14C-2-deoxy-D-glucose is transported into the cell, it is not released. Glucose transport is, therefore, proportional to the amount of radioactivity in the lysate. […] The concentration of compound necessary to produce an increase in glucose transport that is 50% of the response of 100 nM insulin (using 5.6 nM insulin as the lower bound) was calculated as the EC50 (effective concentration).

Assay [1] addresses T1, complete β-kinase domain of the human insulin receptor (CKD) (Homo sapiens, UniProt P06213).
T1 construct: The complete β-kinase domain of the human insulin receptor (CKD); made in house
Nature of the assay: 32P-CKD autophosphorylation assay. As to conditions: compound at 10 μM, phosphorylation of CKD expressed as % of the vehicle level; for activity at 10 µM: 10 min, read-out: Activity (% vs. control). It is filed as biochemical. Here is the method:
The complete β-kinase domain of the human insulin receptor (CKD) was expressed in, and purified from, baculovirus. CKD (4.0 μg/ml), in a solution of 29 mM HEPES (pH 7.6), 0.05% Triton X-100, 10 mM MgCl2, 2 mM MnCl2 (50 μl final volume), is combined with 50 μM ATP, and 5 μCi ^32P-ATP (3000 Ci/mmol).

T1 sequence (P06213 1023-1298 limits assumed): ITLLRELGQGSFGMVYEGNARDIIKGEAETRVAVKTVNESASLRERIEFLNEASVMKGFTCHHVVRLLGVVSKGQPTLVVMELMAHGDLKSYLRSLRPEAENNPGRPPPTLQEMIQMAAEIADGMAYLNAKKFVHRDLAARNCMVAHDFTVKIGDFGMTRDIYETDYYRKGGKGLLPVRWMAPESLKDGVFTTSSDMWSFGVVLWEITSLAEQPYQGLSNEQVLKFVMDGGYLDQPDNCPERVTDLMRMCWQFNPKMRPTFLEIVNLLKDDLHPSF

As for “5-((1E)-2-phenylvinyl)-2-({4-[(4-carboxyphenyl)-N-methylcarbonylamnino]phenyl}-N-methylcarbonylamino)benzoic acid [Compound 20]”, in the assay on 3T3 L1 fibroblasts, the EC50 amounted to 109 µM. Moreover, the “Activity (% vs. control)” value in assay [1] was 112%.

`CNc1ccc(C(=O)Nc2ccc(/C=C/c3ccc(C(=O)O)cc3)cc2C(=O)O)cc1` [Compound 23, 5-[(1E)-2-(4-carboxyphenyl)vinyl]-2-{[4-(methylamino)phenyl]carbonylamino}-benzoic acid] displayed an EC50 with 3T3 L1 fibroblasts (Mus musculus, 3T3-L1) of 98 µM. The activity at 10 µM in assay [1] was determined as 112%.

`O=C(O)Cc1ccc(/C=C/c2ccc(NC(=O)c3ccccc3C(=O)O)cc2)cc1` [Compound 24, 2-[N-(4-{(1E)-2-[4-(carboxymethyl)phenyl]vinyl}phenyl)carbamoyl]benzoic acid]: in the assay with 3T3 L1 fibroblasts (Mus musculus, 3T3-L1), the response was half-maximal at 414 µM (EC50). In addition, in assay [1], the activity at 10 µM came to 126%.
